Data set [1] concerns Rattus norvegicus. Description: Compound was evaluated for percent tranexamic acid recovered in rat urine within 24 hr after oral administration of 0.1 mmol/kg of body weight per mole of pro drug. The data set is classed as ADME, organism-based. As to conditions: in vivo.
In data set [2] the test system is Rattus norvegicus. Description: Compound was evaluated for percent tranexamic acid recovered in rat urine within 24 hr after oral administration of per moiety tranexamic acid. As to conditions: in vivo. In kind it is ADME, organism-based.
Data set [3] is described as follows: Half-life in buffer at pH 1.2. In kind it is ADME.
The nature of data set [4]: Half-life in buffer at pH 7.5. The data set is classed as ADME.
Data set [5] in a line: Half-life in 90% human heparinized plasma. In kind it is ADME.
Data set [6] has as its system Rattus norvegicus. Kind of data set: Compound was evaluated for percent recovery of tranexamic acid in urine from rat within 24 hr after oral administration of the dose […] of body weight. The data set is classed as ADME, organism-based. As to conditions: in vivo.
Data set [7] has as its system Rattus norvegicus. Description: Compound was evaluated for percent recovery of tranexamic acid in urine from rat within 24 hr after oral administration of the dose 1 mmol/kg of body weight. The data set is classed as ADME, organism-based. As to conditions: in vivo.
The test system of data set [8] is Rattus norvegicus. Description: Compound was evaluated for percent tranexamic acid recovered in rat urine within 24 hr after oral administration of 0.1 mmol/kg of body weight. The data set is classed as ADME, organism-based. As to conditions: in vivo.
Data set [9] in a line: Half-life in phosphate buffer at pH 1.2. The data set is classed as ADME.
A short description of data set [10]: Half-life in phosphate buffer at pH 7.5. In kind it is ADME.

Broadly, the half-life is the time needed for the level to fall by half in the phase considered. A low value points to rapid decline.

As to `CC(OC(=O)[C@H]1CC[C@H](CN)CC1)OC(=O)[C@H]1CC[C@](C)(CN)CC1.Cl.Cl` (stereo partly specified), the Absorption in data set [1] came to 42%; in data set [2], 21%.
Take `CCOC(=O)C(OC(=O)[C@H]1CC[C@H](CN)CC1)OC(=O)[C@H]1CC[C@](C)(CN)CC1.Cl.Cl` (stereo partly specified): the results for the Absorption in data set [1] and in [2] were 62% and 31%, respectively. The values for the half-life in data set [3] and in data set [4] were 11 h and 0.9 h, respectively.
Take `CC(C)C(=O)OCOC(=O)[C@H]1CC[C@H](CN)CC1.Cl`: the Absorption in data set [1] came to 54%. Further, the half-life was 18 h in data set [3], 36 h in [4] and 0.00833 h in data set [5].
Take `CCN(CC)C(=O)C(OC(=O)[C@H]1CC[C@H](CN)CC1)OC(=O)[C@H]1CC[C@](C)(CN)CC1.Cl.Cl` (stereo partly specified): the Absorption was 34% in [1] and 17% in [2].
For `CC(C)OC(=O)OC(C)OC(=O)[C@H]1CC[C@H](CN)CC1.Cl` (stereo partly specified), the Recovery was determined as 43% in data set [6] and 86% in data set [7]. The molecule further gave an Absorption in data set [1] of 43%. Also, the half-life in data set [3] is 58 h; in data set [4] it was 144 h.
In data set [7], `NC[C@H]1CC[C@H](C(=O)O)CC1` [TRANEXAMIC ACID] gave a Recovery of 11%. This molecule also gave an Absorption in data set [8] of 22%.
`Cc1oc(=O)oc1COC(=O)[C@H]1CC[C@H](CN)CC1.Cl` came in with an Absorption in data set [1] of 67%. Also, the figures for the half-life in [9] and in data set [10] were 25 h and 2 h, respectively.
In [1], `CC(OC(=O)C(C)C)OC(=O)[C@H]1CC[C@H](CN)CC1.Cl` (stereo partly specified) registered an Absorption of 71%. Moreover, the half-life in data set [3] was 22 h; in [4], 140 h.
Turning to `CC(C)(C)C(=O)OCOC(=O)[C@H]1CC[C@H](CN)CC1.Cl`, the figures for the Recovery in data set [6] and in [7] were 36% and 58%, respectively. In [1], this molecule showed an Absorption of 36%. The half-life is 164 h in data set [3], 147 h in data set [4] and 0.0333 h in data set [5].
In data set [1], `CC(C)(C)C(=O)NCOC(=O)[C@H]1CC[C@H](CN)CC1.Cl` registered an Absorption of 22%. For the same molecule, the half-life in data set [3] is 2 h; in data set [4], 10 h.
As to `CN(C)C(=O)C(OC(=O)[C@H]1CC[C@H](CN)CC1)OC(=O)[C@H]1CC[C@](C)(CN)CC1.Cl.Cl` (stereo partly specified), the results for the Absorption in data set [1] and in data set [2] were 54% and 27%, respectively. The half-life in [3] is 38 h; in data set [4], 6.7 h.
In turn, `CC(OC(=O)C(C)(C)C)OC(=O)[C@H]1CC[C@H](CN)CC1.Cl` (stereo partly specified) came in with an Absorption in [1] of 43%.
As to `Cl.NC[C@H]1CC[C@H](C(=O)OC2OC(=O)c3ccccc32)CC1` (stereo partly specified), the Recovery in [6] was found to be 44%; in data set [7], 54%. The molecule also gave an Absorption in [1] of 44%. The half-life in [10] was 5 h.
`Cl.NCc1ccc(C(=O)OCOC(=O)[C@H]2CC[C@H](CN)CC2)cc1` displayed an Absorption in data set [1] of 35%.
Consider `CCOC(=O)OC(C)OC(=O)[C@H]1CC[C@H](CN)CC1.Cl` (stereo partly specified), for which the Recovery in data set [6] is given as 50%; in data set [7], 62%. The molecule also registered an Absorption in [1] of 50%. The values for the half-life in [3], in data set [4] and in [5] were 54 h, 90 h and 0.025 h, respectively.
`CCOC(=O)[C@H]1CC[C@H](CN)CC1.Cl` showed an Absorption in data set [8] of 92%. For the same molecule, the half-life in [5] is 4 h.
For the molecule `C[C@]1(CN)CC[C@H](C(=O)OCOC(=O)[C@H]2CC[C@H](CN)CC2)CC1.Cl.Cl`, the Recovery in [6] was found to be 25%; in [7], 32%. Moreover, the figures for the Absorption in data set [1] and in data set [2] were 50% and 25%, respectively. For the same molecule, the half-life in data set [3] is 31 h; in data set [4] it was 26 h; in data set [5], 0.025 h.
On to `CCC(OC(=O)[C@H]1CC[C@H](CN)CC1)OC(=O)[C@H]1CC[C@](C)(CN)CC1.Cl.Cl` (stereo partly specified), for which the results for the Absorption in [1] and in [2] were 26% and 13%, respectively. Moreover, the half-life in data set [3] was 29 h; in data set [4] it was 70 h; in data set [5] it was 0.1 h.
For the molecule `Cl.NC[C@H]1CC[C@H](C(=O)Oc2ccc(CCC(=O)O)cc2)CC1` [CETRAXATE HYDROCHLORIDE], the Absorption in data set [1] was determined as 28%.
Take `CC(=O)OC(C)OC(=O)[C@H]1CC[C@H](CN)CC1.Cl` (stereo partly specified): the Absorption in [1] was found to be 59%. The half-life was 14 h in data set [3], 68 h in data set [4] and 0.1 h in [5].
Regarding `C[C@]1(CN)CC[C@H](C(=O)OCc2oc(=O)oc2COC(=O)[C@H]2CC[C@H](CN)CC2)CC1.Cl.Cl`, the Absorption in data set [1] is recorded as 54%; in data set [2], 27%.

These data come from ChEMBL document CHEMBL1123423, “Tranexamic acid derivatives with enhanced absorption” (J Med Chem, 1986).
